According to US10292597B2, “Assessing endothelial function and providing calibrated UFMD data using a blood pressure cuff” (The Regents of the University of California, priority 2015, dated 2019):
“Also recorded” adds a separate entry of the source.

Experiments:
arterial smooth muscle = conditions: cited from earlier work
brachial artery = test: Cuff-based measurement of pulse amplitude (proportional to arterial area) before and after a stimulus; format: in vivo, human
Procedure: Three individuals in the age-range of 28-38 were examined. All subjects had Framingham risk scores of 1% or less, and had no history of cardiovascular disease. Each individual was assessed at least three times before and after RH induced by five minutes of suprasystolic cuff occlusion. At least one additional measurement was made using the same protocol, except without cuff inflation. Sensitivity to a 0.4 mg dose of sublingual NG was assessed three times in two individuals.
Sensitivity to a 0.4 mg dose of sublingual NG was assessed three times in two individuals. In the analysis that follows, all of the datasets are pooled by stimulus. This addresses the question: Can the method measure changes in arterial tone due to vasorelaxatory stimuli and with what sensitivity?
A single quantity relating to the recorded pressure data, the pulse amplitude, was studied and it was posited that this is proportional to the arterial area. During the post stimulus interval, pressure data from the cuff were recorded approximately every 80 seconds, for a period of 30 seconds. During each recording interval, the cuff was inflated to 70 mm Hg, which was always below the measured diastolic pressure of the subject. To quantify the observed response, the mean of the pulse quantity (in this case, amplitude) during the response interval was divided by the mean value of the same quantity during the baseline interval. FIG. 10 illustrates the results.
In Table 2, the maximum response for each stimulus is calculated and the statistical significance of the change relative to the NS case (one-tail Student's t test) is evaluated. Values of p<0:05 were considered significant.
(iii) The cuff is inflated to a value Pm, which must be less than the mean arterial pressure, for a period Tm=30 s. During this time interval, we measure and record the pressure fluctuations in the cuff.
v) The stimulus is applied. This is either 1-5 min of cuff occlusion to suprasystolic pressure Ps (for studies of endothelial function) or a dose of sublingual NG (for studies of endothelium-independent vasodilation).
(vi) After Tp=45 s have elapsed following cuff release or drug administration, a series of up to Nr=10 repeat measurement intervals ensue. In each interval, the cuff is inflated to Pm for Tm seconds, after which it is deflated for Tw seconds. This large number of repeat measurements (Nr) is required only when one wishes to record the return of the vessel toward baseline.
(viii) Each post-stimulus response is then compared to the average baseline response, to yield the area-based cFMD metric (Equation 2) defined above. […]
(iv) The maximum of the cFMD metric in Equation 2, analogous to that used for uFMD, expressed directly as a function of the measurement data, is calculated as […]

NO synthase = test: Single pulse waveforms from the pressure cuff after endothelial stimulation, with NO synthase inhibitor; format: in vivo, human; conditions: cuff inflated to 70 mm Hg; FIG. 3
Excerpt: Both the amplitude and slope of the rising edge of the pulse increase markedly after endothelial stimulation.
In an artery with intact endothelial function, both pulse height (maximal cross-sectional arterial area) and compliance (maximum slope of the rising edge) increase markedly over baseline. […] FIG. 4 illustrates how a five minute cuff occlusion and the ensuring reactive hyperemia lead to major increases in area change per pulse and the maximum derivative of the area per pulse. Both metrics return to baseline levels after 20 minutes. FIG. 5 confirms the repeatability of the protocol by illustrating the effects of a series of two cuff occlusion periods. We see from FIG. 6 that only a small slow drift in the measured quantities occurs when no reactive hyperemic stimulus is applied.
A stimulus is then applied to the subject. Any of a number of stimuli expected to alter endothelial function are contemplated. Such stimuli include, for example, occlusion of blood flow, and/or application of one or more drugs to the subject. Illustrative drugs include, for example, drugs that act as NO agonists (e.g. acetylcholine), β2-adrenergic agonists such as albuterol, acoustic/mechanical tissue vibration, transcutaneous low frequency ultrasound (see, e.g., Iida et al. (2006) J. Amer. Coll. Cardiol., 48(3): 532-537), and the like. […]

Row | Structure (SMILES) | smooth muscle dilation elicited (arterial smooth muscle; 400 μg sublingual dose, Feldman et al. (1979), Adams et al. (1998)) | typical dilation due to nitroglycerin (arterial smooth muscle; observed at Ptm=PS) | change in metric, NG vs. NS (brachial artery; 400 μg sublingual vs zero dose (no stimulus)) | cDmax % (brachial artery; 400 μg sublingual, Table 5) | Mean ± SEM of maximum response over all data sets (dilation response) (brachial artery; 400 μg sublingual, pooled data sets, Table 5) | Mean ± SEM of maximum Response over all data sets (amplitude response, response/baseline) (brachial artery; 0.4 mg sublingual, cuff inflated to 70 mm Hg, pooled data sets, Table 2) | effect on increase of pulse amplitude and rising-edge slope after endothelial stimulation (NO synthase)
1 | O=[N+]([O-])OCC(CO[N+](=O)[O-])O[N+](=O)[O-] [NG, Nitroglycerin] | maximal smooth muscle dilation | ≈ 20% | 70% | 70% | 1.70 ± 0.036 | 1.70 ± 0.036 | 
2 | COC(=O)[C@@H](N)CCCNC(=N)N[N+](=O)[O-] [L-NAME] |  |  |  |  |  |  | greatly attenuates this response; also recorded: greatly attenuated
